Test results from paper PMC8213057, “Targeting ALK2: An Open Science Approach to Developing Therapeutics for the Treatment of Diffuse Intrinsic Pontine Glioma” (Journal of Medicinal Chemistry, 2020).

How the values were obtained:
IRAK1 = IRAK1 (Homo sapiens, UniProt P51617); conditions: 1 μM; Run 1, Run 2
MYLK4 = molecular target: T1, MYLK4 (Homo sapiens, UniProt Q86YV6); experiment: biochemical; conditions: read-out: % enzyme activity, 1 μM; Run 1, Run 2
T1 sequence (Q86YV6 1-388): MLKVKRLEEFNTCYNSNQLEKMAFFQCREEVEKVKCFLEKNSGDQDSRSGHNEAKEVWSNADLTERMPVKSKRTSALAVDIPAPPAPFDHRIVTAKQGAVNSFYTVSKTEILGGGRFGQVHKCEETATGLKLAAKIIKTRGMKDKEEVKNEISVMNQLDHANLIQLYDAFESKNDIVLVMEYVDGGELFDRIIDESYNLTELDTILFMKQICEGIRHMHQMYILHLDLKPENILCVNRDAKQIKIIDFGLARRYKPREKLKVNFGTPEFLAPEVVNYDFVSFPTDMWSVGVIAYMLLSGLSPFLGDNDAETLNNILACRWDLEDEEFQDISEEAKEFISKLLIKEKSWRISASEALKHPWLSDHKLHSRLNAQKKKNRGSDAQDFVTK

NEK9 = molecular target: T2, NEK9 (Homo sapiens, UniProt Q8TD19); experiment: biochemical; conditions: read-out: % enzyme activity, 1 μM; Run 1, Run 2
T2 sequence (Q8TD19 1-979): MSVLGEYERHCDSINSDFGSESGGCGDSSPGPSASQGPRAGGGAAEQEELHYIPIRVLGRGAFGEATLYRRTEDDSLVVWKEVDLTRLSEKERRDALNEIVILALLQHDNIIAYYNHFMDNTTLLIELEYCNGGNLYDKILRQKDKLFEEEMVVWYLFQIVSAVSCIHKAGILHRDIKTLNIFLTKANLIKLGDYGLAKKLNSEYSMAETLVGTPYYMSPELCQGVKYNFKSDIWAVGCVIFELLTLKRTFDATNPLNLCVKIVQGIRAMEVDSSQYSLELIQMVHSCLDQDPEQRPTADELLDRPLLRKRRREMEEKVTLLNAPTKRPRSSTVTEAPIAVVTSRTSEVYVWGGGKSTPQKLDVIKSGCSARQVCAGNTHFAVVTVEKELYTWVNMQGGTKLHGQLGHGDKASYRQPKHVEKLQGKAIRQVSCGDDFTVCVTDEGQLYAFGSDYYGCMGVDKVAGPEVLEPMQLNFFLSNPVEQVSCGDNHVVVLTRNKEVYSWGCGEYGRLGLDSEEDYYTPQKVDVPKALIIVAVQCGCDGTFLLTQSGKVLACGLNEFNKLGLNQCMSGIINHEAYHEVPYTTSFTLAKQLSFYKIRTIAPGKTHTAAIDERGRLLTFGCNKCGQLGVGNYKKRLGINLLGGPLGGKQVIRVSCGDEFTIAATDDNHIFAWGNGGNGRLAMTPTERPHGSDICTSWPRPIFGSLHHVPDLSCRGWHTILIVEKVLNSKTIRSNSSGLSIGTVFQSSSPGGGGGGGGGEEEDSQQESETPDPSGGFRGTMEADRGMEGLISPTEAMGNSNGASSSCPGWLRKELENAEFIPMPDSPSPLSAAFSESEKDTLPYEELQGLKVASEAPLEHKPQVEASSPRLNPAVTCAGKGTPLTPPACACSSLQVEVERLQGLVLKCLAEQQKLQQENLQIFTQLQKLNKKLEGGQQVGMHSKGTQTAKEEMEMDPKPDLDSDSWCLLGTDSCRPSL

TAOK2/TAO1 = molecular target: T3, TAOK2/TAO1 (Homo sapiens, UniProt Q9UL54); experiment: biochemical; conditions: read-out: % enzyme activity, 1 μM; Run 1, Run 2
T3 sequence (Q9UL54 1-1235): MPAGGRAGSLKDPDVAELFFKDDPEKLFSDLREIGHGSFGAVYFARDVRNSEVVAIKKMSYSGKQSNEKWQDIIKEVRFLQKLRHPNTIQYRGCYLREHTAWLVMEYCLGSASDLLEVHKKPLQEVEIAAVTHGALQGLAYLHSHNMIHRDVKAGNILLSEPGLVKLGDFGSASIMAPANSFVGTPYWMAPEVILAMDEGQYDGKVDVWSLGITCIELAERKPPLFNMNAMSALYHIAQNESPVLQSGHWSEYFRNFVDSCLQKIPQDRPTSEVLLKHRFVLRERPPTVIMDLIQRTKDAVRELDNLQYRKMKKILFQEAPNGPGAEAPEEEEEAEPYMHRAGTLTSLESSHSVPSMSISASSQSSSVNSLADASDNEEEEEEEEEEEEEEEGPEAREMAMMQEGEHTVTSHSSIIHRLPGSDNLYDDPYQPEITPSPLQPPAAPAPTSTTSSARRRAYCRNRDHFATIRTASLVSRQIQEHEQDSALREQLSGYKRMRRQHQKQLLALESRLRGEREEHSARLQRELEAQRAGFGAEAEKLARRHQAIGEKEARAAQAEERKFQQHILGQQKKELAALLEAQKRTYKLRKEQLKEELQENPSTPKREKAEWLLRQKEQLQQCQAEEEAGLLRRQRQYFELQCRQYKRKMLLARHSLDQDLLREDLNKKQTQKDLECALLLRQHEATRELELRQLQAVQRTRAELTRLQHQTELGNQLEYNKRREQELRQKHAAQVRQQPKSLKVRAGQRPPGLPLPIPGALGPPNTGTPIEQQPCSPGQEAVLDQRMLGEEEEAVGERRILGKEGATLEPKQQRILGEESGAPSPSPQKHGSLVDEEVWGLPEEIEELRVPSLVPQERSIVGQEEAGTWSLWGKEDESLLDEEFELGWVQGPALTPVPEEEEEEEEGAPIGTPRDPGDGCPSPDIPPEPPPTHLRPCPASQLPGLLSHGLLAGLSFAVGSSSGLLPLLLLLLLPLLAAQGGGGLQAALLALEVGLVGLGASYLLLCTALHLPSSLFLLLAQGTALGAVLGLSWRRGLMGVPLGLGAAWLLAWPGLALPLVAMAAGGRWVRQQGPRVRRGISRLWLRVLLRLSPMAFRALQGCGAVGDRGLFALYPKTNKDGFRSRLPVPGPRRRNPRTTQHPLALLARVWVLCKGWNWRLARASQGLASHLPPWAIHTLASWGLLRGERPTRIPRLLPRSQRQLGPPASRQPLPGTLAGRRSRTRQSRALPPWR

ALK6/BMPR1B = molecular target: T4, ALK6/BMPR1B (Homo sapiens, UniProt O00238); experiment: 375-member kinase panel; assay type: biochemical; conditions: Run 1, Run 2; for % enzyme activity: 1 μM; for remaining activity at 1 µM: read-out: % enzyme activity, 1 μM
T4 construct: purchased Reaction Biology Corporation
T4 sequence (O00238 14-502): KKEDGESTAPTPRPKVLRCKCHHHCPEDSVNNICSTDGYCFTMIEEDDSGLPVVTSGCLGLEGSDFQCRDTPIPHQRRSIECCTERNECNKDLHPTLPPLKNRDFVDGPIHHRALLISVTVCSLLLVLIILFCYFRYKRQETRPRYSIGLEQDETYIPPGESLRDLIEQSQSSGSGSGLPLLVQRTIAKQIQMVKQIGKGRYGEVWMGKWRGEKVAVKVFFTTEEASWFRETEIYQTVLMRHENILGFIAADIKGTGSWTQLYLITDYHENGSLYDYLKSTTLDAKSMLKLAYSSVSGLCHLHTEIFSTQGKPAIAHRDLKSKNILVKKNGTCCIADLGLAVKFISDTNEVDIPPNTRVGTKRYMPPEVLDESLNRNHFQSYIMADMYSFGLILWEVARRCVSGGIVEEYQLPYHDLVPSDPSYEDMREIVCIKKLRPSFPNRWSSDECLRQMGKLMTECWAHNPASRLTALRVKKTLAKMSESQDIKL

Chain of IRAK1 (P51617 whole entry): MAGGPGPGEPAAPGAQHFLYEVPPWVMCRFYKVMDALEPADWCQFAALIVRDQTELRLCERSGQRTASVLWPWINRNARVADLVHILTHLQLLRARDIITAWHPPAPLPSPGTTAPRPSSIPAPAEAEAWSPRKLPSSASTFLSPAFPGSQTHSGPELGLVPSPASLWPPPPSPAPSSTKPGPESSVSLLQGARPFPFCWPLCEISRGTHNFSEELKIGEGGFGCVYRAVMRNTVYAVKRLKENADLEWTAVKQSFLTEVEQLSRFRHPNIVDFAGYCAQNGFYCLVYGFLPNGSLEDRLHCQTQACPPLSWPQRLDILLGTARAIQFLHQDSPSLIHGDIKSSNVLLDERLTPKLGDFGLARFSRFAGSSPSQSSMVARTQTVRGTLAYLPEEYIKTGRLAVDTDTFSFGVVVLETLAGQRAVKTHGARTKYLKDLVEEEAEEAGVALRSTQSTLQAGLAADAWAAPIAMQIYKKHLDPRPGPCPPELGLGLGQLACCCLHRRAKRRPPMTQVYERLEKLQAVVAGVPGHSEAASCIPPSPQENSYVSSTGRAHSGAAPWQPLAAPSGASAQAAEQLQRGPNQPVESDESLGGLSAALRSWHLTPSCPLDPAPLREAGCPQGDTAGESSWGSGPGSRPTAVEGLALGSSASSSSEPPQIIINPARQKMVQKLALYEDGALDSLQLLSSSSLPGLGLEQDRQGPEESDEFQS

| SMILES | % enzyme activity (IRAK1) [%] | remaining activity at 1 µM (MYLK4) [%] | remaining activity at 1 µM (NEK9) [%] | remaining activity at 1 µM (TAOK2/TAO1) [%] | % enzyme activity (ALK6/BMPR1B) [%] | remaining activity at 1 µM (ALK6/BMPR1B) [%] |
| --- | --- | --- | --- | --- | --- | --- |
| COc1cc(-c2cncc(-c3ccc(N4CCN(C)CC4)cc3)c2C)cc(F)c1C(N)=O [Compound 26a, 2-Fluoro-6-methoxy-4-(4-methyl-5-(4-(4-methylpiperazin-1-yl)phenyl)pyridin-3-yl)benzamide] | 101.36 | 97.7 | 91.2 | 88.6 | 17.03 | 18.2 |
| COc1cc(-c2cncc(-c3ccc(N4C[C@@H](C)N(C)[C@@H](C)C4)cc3)c2C)cc(F)c1C(N)=O [Compound 26c, 2-Fluoro-6-methoxy-4-(4-methyl-5-(4-((3R,5S)-3,4,5-trimethylpiperazin-1-yl)phenyl)pyridin-3-yl)benzamide] | 97.90 | 104 | 91.6 | 101 | 30.06 | 30.2 |
